# Reference: a melting point compilation (Tetko et al.)
row,Structure (SMILES),melting point [°C]
1,COC(=O)c1cc(OC)c(OC)c(OC)c1N,44 to 45
2,N=c1sccn1CC(=O)O,243 to 247
